According to ChEMBL document CHEMBL5696442, “Discovery of type II inhibitors of TGFβ-activated kinase 1 (TAK1) and mitogen-activated protein kinase kinase kinase kinase 2 (MAP4K2)” (J Med Chem, 2015):

What was measured:
Format in all cases: cell-based
[1] = molecular target: T1, Serine/threonine-protein kinase NLK (Homo sapiens) (UniProt Q9UBE8); experiment: Inhibition of NLK Lys2 labeling site in human A-375 cells at 0.05 uM by KiNativ Profiling analysis relative to control
T1 sequence (whole entry): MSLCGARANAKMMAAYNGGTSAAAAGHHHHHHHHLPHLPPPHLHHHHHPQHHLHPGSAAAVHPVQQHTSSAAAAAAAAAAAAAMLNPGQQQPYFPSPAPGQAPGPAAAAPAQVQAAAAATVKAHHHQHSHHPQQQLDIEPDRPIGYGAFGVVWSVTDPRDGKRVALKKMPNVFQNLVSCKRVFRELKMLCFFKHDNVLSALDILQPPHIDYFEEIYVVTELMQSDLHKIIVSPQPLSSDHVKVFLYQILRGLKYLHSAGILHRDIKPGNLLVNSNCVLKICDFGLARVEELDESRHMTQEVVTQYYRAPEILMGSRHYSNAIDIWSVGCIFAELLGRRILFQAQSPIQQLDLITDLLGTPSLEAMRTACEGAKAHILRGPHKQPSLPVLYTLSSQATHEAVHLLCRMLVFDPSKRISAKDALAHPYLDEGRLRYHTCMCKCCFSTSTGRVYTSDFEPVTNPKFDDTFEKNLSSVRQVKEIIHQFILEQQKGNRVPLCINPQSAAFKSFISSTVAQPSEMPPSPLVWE

[2] = molecular target: T2, Kinase suppressor of Ras 1 (Homo sapiens) (UniProt Q8IVT5); experiment: Inhibition of KSR1 ACT labeling site harbouring SKNVFYDNGK in human A-375 cells at 0.05 uM by KiNativ Profiling analysis relative to control
T2 sequence (whole entry): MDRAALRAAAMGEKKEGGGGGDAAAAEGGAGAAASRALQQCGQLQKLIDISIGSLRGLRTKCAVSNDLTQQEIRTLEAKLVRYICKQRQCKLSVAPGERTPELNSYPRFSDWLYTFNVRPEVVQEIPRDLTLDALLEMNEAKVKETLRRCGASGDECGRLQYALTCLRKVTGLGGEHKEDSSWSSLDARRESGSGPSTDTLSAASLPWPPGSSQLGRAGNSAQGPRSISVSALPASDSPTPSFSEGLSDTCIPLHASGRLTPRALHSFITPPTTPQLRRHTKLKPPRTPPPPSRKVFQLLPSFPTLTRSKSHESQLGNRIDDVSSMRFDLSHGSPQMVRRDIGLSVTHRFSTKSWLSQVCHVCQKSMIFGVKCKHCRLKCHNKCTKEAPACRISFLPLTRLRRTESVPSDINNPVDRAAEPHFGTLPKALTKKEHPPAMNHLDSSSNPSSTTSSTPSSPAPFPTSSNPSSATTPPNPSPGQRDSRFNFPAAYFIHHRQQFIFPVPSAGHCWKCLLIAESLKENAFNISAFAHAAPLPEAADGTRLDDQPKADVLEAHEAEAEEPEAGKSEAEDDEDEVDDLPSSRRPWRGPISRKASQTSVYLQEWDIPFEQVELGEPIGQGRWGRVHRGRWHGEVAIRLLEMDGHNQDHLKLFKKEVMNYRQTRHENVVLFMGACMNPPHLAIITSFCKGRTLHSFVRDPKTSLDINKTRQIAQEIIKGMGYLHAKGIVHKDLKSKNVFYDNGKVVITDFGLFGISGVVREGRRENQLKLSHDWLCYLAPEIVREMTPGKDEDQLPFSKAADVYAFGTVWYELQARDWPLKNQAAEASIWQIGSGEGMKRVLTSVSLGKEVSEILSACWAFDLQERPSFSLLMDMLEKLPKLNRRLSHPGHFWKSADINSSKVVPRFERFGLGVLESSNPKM

[3] = molecular target: T3, Serine/threonine-protein kinase greatwall (Homo sapiens) (UniProt Q96GX5); experiment: Inhibition of MASTL ATP Loop labeling site in human A-375 cells at 0.05 uM by KiNativ Profiling analysis relative to control
T3 sequence (whole entry): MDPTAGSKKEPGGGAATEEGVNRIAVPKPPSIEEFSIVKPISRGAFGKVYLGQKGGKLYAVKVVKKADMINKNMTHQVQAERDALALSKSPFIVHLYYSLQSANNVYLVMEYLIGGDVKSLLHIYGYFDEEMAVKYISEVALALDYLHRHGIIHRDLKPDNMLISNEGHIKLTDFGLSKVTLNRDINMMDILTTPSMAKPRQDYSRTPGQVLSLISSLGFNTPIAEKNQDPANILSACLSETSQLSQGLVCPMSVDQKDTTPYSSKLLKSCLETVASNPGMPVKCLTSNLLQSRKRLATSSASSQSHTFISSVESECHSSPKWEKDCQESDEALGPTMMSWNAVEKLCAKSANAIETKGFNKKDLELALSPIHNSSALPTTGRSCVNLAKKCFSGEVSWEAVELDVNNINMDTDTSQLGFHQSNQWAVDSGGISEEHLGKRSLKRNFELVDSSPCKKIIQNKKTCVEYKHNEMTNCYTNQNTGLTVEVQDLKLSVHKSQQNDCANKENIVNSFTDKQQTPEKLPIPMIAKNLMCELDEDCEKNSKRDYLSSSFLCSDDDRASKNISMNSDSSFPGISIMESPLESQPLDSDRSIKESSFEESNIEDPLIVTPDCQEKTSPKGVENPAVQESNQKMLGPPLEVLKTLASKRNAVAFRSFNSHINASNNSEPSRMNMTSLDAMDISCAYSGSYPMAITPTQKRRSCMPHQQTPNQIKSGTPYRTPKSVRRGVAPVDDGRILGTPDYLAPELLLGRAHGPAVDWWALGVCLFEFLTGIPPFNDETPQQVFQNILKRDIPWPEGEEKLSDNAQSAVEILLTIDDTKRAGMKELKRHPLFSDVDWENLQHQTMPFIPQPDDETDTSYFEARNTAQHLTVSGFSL

[4] = molecular target: T4, Mitogen-activated protein kinase 12 (Homo sapiens) (UniProt P53778); experiment: Inhibition of p38 gamma Lys2 labeling site in human A-375 cells at 0.5 uM by KiNativ Profiling analysis relative to control
T4 sequence (whole entry): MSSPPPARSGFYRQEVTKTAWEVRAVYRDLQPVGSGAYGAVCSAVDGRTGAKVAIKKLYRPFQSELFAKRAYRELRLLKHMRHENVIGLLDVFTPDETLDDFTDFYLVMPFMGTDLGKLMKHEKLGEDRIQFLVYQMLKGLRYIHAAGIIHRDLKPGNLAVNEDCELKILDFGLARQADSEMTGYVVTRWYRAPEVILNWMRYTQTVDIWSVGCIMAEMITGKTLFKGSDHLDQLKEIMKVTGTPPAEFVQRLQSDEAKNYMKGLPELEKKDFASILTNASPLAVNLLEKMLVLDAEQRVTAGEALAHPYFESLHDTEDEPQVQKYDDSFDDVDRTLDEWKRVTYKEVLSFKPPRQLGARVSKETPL

[5] = molecular target: Tyrosine-protein kinase JAK1 (Homo sapiens) (UniProt P23458); experiment: Inhibition of JAK1 in human A-375 cells at 0.5 uM by KiNativ Profiling analysis relative to control
Tyrosine-protein kinase JAK1 (Homo sapiens), sequence (P23458 whole entry): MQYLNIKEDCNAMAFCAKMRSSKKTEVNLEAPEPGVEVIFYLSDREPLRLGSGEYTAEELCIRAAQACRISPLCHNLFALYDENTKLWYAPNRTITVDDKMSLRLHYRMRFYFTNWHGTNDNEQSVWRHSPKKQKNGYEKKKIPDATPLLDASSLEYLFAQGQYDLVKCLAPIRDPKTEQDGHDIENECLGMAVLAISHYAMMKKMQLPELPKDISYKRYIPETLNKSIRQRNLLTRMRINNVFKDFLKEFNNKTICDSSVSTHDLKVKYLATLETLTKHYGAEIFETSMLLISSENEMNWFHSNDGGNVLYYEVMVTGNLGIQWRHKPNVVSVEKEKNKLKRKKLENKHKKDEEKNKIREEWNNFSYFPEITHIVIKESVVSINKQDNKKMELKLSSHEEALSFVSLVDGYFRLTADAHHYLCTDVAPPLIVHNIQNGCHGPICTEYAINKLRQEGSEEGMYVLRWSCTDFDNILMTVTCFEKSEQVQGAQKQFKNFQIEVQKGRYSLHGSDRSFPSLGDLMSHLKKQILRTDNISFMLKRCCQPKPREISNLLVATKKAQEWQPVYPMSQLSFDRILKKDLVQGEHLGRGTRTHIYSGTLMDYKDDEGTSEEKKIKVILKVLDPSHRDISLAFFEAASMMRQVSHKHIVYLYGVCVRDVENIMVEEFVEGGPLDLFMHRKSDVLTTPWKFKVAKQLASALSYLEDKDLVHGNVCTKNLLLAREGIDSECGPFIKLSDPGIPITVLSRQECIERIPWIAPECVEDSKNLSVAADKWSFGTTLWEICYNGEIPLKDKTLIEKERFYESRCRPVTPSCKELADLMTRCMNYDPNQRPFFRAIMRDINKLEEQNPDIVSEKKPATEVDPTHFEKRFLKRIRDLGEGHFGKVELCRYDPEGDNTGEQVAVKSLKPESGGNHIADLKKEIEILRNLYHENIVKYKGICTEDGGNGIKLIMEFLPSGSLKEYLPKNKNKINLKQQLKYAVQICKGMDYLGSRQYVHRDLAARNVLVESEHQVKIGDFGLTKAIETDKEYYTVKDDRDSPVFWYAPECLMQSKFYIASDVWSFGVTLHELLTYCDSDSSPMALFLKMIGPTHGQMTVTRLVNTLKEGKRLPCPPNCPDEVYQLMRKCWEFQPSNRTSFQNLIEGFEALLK

`CCN1CCN(Cc2ccc(NC(=O)c3ccc(C)c(Oc4ccnc5[nH]ccc45)c3)cc2C(F)(F)F)CC1` showed an inhibition [1] of -5.6%, an inhibition [2] of 37% and an inhibition [3] of 2%. The inhibition [4] was 86.2% and the inhibition [5] was 13%.

`CCN1CCN(Cc2ccc(NC(=O)c3ccc(C)c(/C=C/c4cnc5[nH]ccc5c4OC)c3)cc2C(F)(F)F)CC1` showed an inhibition [1] of 13.8%, an inhibition [2] of 8.6% and an inhibition [3] of -6.2%. For the same compound, the inhibition [4] was 25.2% and the inhibition [5] was 5.7%.
